These results are taken from ChEMBL document CHEMBL3507680, “University of Dundee, Gates Library screen for HepG2 cell viability”.

The structures appear in SMILES notation.

A short description of the data set: Human HepG2 cell viability assay in 384 well format. The data set is classed as toxicity, cell-based. Details: dose 125 nL, time 70.5 hour; concentration not given beside the values. The following applies: HepG2 cells, read-out: Inhibition.
With `CC(=O)N(Cc1noc(C)n1)C1CCN(CC(=O)N(C)C2CC2)C1` (stereo not given), the cytotoxicity at 70.5 h is -2.89%.

Regarding `CN(CCc1ccccn1)C(=O)C(O)c1cc(Cl)cc(Cl)c1` (stereo not given), the cytotoxicity at 70.5 h stood at 42.8%.

As for `Cc1cc(C)cc(OCC(=O)N2CCCC2)c1`, the cytotoxicity at 70.5 h is -21.3%.

In the case of `Cc1cc(C)cc(OCC(=O)N2CCC2)c1`, the cytotoxicity at 70.5 h was -22.1%.

Regarding `CC(Cn1cccn1)NC(=O)c1ccsc1` (stereo not given), the cytotoxicity at 70.5 h is -11.4%.

`CCCn1cc(NC(=O)c2cccc3cccnc23)ccc1=O`: the cytotoxicity at 70.5 h is -17.8%.

`NC(=O)CN1CCCN(C(=O)COc2cccc(F)c2)CC1`: the cytotoxicity at 70.5 h was -25.4%.

With `c1cnn(CCNCc2cnc(N3CCOCC3)nc2)c1`, the cytotoxicity at 70.5 h was found to be 41.2%.

Consider `Cc1nccn1CCCNc1ccc(Cl)c(C#N)n1`, for which the cytotoxicity at 70.5 h was -24.8%.

For the compound `O=C1CCC(C(=O)Nc2ccc(=O)n(Cc3ccc(Cl)c(Cl)c3)c2)N1` (stereo not given), the cytotoxicity at 70.5 h was -16.6%.

For the compound `COCc1noc(-c2cc(Cl)c3c(c2)OCCCO3)n1`, the cytotoxicity at 70.5 h was -8.58%.

Consider `COCCc1noc(-c2cc(Cl)c3c(c2)OCCCO3)n1`, for which the cytotoxicity at 70.5 h was -19.1%.

Consider `COc1ccc2c(OCC(=O)NC(C)(C)C)ccnc2c1`, for which the cytotoxicity at 70.5 h was -18.7%.

On to `CS(=O)(=O)CCSCc1cc(F)cc2cccnc12`, for which the cytotoxicity at 70.5 h is -16.7%.

Regarding `COCC(C)NC(=O)CN1CCCC1` (stereo not given), the cytotoxicity at 70.5 h is -23.1%.

Take `CC(C)c1nsc(N2CCOCC2)n1`: the cytotoxicity at 70.5 h was -27.4%.

Consider `N#Cc1cccc(CS(=O)(=O)NCC(O)Cc2ccccc2)c1` (stereo not given), for which the cytotoxicity at 70.5 h was -0.967%.

On to `CCc1nc(NS(=O)(=O)c2ccc(F)cc2C)no1`, for which the cytotoxicity at 70.5 h is -5.01%.

For the compound `CSCc1nc(C(C)(C)NC(=O)OC(C)(C)C)no1`, the cytotoxicity at 70.5 h is -7.03%.

Regarding `O=S(=O)(CCNCc1cccc2c1OCCO2)N1CCOCC1`, the cytotoxicity at 70.5 h turned out to be 5.04%.

Turning to `CCc1nc(C(=O)NCc2ccc(N3CCNC(=O)C3)c(F)c2)c[nH]1`, the cytotoxicity at 70.5 h was 5.08%.

As for `CCC(CNC(=O)c1cc(OC)ccc1Br)N1CCc2ccccc2C1` (stereo not given), the cytotoxicity at 70.5 h worked out at 7.55%.

For the compound `COc1ccc(CCNC(=O)NC2CCCC2)cc1OC`, the cytotoxicity at 70.5 h is -12.5%.

With `COCCn1cc(C(=O)N2CCCC2c2cc(C)no2)ccc1=O` (stereo not given), the cytotoxicity at 70.5 h is -11.6%.

`COc1ccc(C(CO)NC(=O)Nc2cccc(C#N)c2)cc1` (stereo not given): the cytotoxicity at 70.5 h was -8.65%.

Regarding `COc1cc(C)nc(N2CCN(C(=O)CCc3nccs3)CC2)n1`, the cytotoxicity at 70.5 h is 9.16%.

Turning to `COc1cc(C)nc(N2CCN(C(=O)CCc3cscn3)CC2)n1`, the cytotoxicity at 70.5 h is -6.3%.

`N#Cc1cccc(NC(=O)N[C@H](CO)c2ccccc2)c1`: the cytotoxicity at 70.5 h is -10.8%.

Take `Cc1nccc(CNC(=O)NCCOc2ccc(F)c(F)c2)n1`: the cytotoxicity at 70.5 h is -2.22%.

In the case of `CC(c1ccc(Cl)cc1)N1CCN(CCS(C)(=O)=O)CC1` (stereo not given), the cytotoxicity at 70.5 h was -6.43%.

On to `N#Cc1cc(NC(=O)c2ccccc2)ccc1N1CCC(O)CC1`, for which the cytotoxicity at 70.5 h came out at 1.64%.

Regarding `COc1ccccc1OCC(=O)NS(=O)(=O)c1ccccc1F`, the cytotoxicity at 70.5 h is -0.501%.

For the compound `CC(NC1CCN(CCS(C)(=O)=O)CC1)c1ccc(Cl)cc1` (stereo not given), the cytotoxicity at 70.5 h stood at 19.3%.

Regarding `CC(=O)c1cccc(OCCCC(=O)N(C)Cc2cccc(O)c2)c1`, the cytotoxicity at 70.5 h is -6.39%.

As to `O=C(CN1CCCCC1Cn1cncn1)NC1CCN(C2CC2)CC1` (stereo not given), the cytotoxicity at 70.5 h was -1.8%.

Regarding `O=C(CN1CCCCC1Cn1cccn1)NC1CCN(C2CC2)CC1` (stereo not given), the cytotoxicity at 70.5 h is -7.07%.

Turning to `O=C(CN1CCCC1Cn1cccn1)NC1CCOCC1` (stereo not given), the cytotoxicity at 70.5 h is -5.99%.

For the compound `c1coc(-c2noc(CN3CCC(c4ccn[nH]4)CC3)n2)c1`, the cytotoxicity at 70.5 h is -8.33%.

Regarding `CCOC(C)c1nc(CN2CCNCC2)cs1` (stereo not given), the cytotoxicity at 70.5 h came out at 10.9%.

`COCCn1cc(C(=O)N2CCCC2c2cccc(F)c2)ccc1=O` (stereo not given): the cytotoxicity at 70.5 h was -4.27%.

For the compound `O=C(NCc1ccccc1CN1CCC(O)CC1)Nc1cccnc1`, the cytotoxicity at 70.5 h is -4.5%.

As for `Cc1nn(C)c(C)c1CNC1CCOc2ccccc21` (stereo not given), the cytotoxicity at 70.5 h was -8.58%.

Consider `CCCc1noc(CCC(=O)NC(C)c2nnc3n2CCCCC3)n1` (stereo not given), for which the cytotoxicity at 70.5 h is -9.55%.

As to `O=C(C1CCCc2[nH]ncc21)N1CCCCCC1` (stereo not given), the cytotoxicity at 70.5 h is -7.74%.

Take `CCNC(=O)CN1CCCN(C(=O)C2CCCc3[nH]ncc32)CC1` (stereo not given): the cytotoxicity at 70.5 h was -8.68%.

As to `CCC(CC)c1cc(CNC(=O)N2CCCC(N(C)C)C2)on1` (stereo not given), the cytotoxicity at 70.5 h was -9.56%.

`CCOC(=O)NC(CNC(=O)c1ccccn1)CC(C)C` (stereo not given): the cytotoxicity at 70.5 h was -4.75%.

Consider `CN1CCN(Cc2ccccc2CNC(=O)c2ccc(Br)cc2)CC1`, for which the cytotoxicity at 70.5 h was -7.15%.

Consider `CCN(CC(=O)NC)S(=O)(=O)N1CCCCCC1`, for which the cytotoxicity at 70.5 h was -10.4%.

With `Cc1cc(S(=O)(=O)Nc2cccc(-n3cccc3)c2)sc1C(=O)O`, the cytotoxicity at 70.5 h is -13%.

On to `O=C(NC1CCS(=O)(=O)C1)c1sccc1-c1ccc(F)cc1` (stereo not given), for which the cytotoxicity at 70.5 h was -7.53%.

As to `COc1c(CNC2CCCc3ccccc32)c(C)nn1C` (stereo not given), the cytotoxicity at 70.5 h is -8%.

`O=C(NCC1CCS(=O)(=O)C1)c1sccc1-c1ccc(F)cc1` (stereo not given): the cytotoxicity at 70.5 h is 8.07%.

For the compound `COc1ccnc(N2CCN(C(=O)c3csc(C4CC4)n3)CC2)n1`, the cytotoxicity at 70.5 h is -6.71%.

Turning to `O=C(NCC1CC1)Nc1cccc(N2CCN(CC3CC3)CC2)c1`, the cytotoxicity at 70.5 h was -0.269%.

Turning to `COCc1cccc(NC(C)C(=O)N(C)Cc2ccccc2)c1` (stereo not given), the cytotoxicity at 70.5 h is 10.7%.

Regarding `Cc1cnn(CC2CN(CCS(=O)(=O)c3ccccc3)CCO2)c1` (stereo not given), the cytotoxicity at 70.5 h was -9.7%.

As to `Cc1cn(CC(=O)NC2CCN(S(C)(=O)=O)CC2)c2ccccc12`, the cytotoxicity at 70.5 h was -4.04%.

On to `Cc1cnn(CC2CN(CCN3CCCC3=O)CCO2)c1` (stereo not given), for which the cytotoxicity at 70.5 h is -11.5%.

Turning to `Cc1cnc(NC(=O)N2CCCC2)s1`, the cytotoxicity at 70.5 h is -12%.

In the case of `COc1ccc(F)cc1C(C)NC(=O)c1nnc(C)s1` (stereo not given), the cytotoxicity at 70.5 h is -5.29%.

Take `CC(O)CC(C)(C)CNC(=O)NCc1cccc(-n2ccnc2)c1` (stereo not given): the cytotoxicity at 70.5 h was -7.65%.

In the case of `O=C(C1CCCc2[nH]ncc21)N1CCCC1` (stereo not given), the cytotoxicity at 70.5 h is -4.89%.

Consider `CCN(CC(=O)NC(C)C)S(=O)(=O)N1CCC(C)C1` (stereo not given), for which the cytotoxicity at 70.5 h is -6.99%.

`CC(=O)N1CCN(Cc2nnc(C(C)(C)C)o2)CC1`: the cytotoxicity at 70.5 h was -8.04%.

Regarding `CNC(=O)CS(=O)(=O)Cc1coc(-c2ccc(OC)cc2)n1`, the cytotoxicity at 70.5 h was -12.7%.

Regarding `CNC(=O)CS(=O)(=O)Cc1coc(-c2ccc(F)cc2)n1`, the cytotoxicity at 70.5 h is -9.1%.

With `CC(C)(C)c1nc(CN2CCC(c3nc4cc(Cl)ccc4o3)CC2)no1`, the cytotoxicity at 70.5 h was 15.4%.

Regarding `CCNC(=O)N1CCCCC1CCNS(C)(=O)=O` (stereo not given), the cytotoxicity at 70.5 h was -10.5%.

For the compound `CN(C)C1CCN(C(=O)NCc2ccccc2Cn2cncn2)CC1`, the cytotoxicity at 70.5 h is -11.6%.

Consider `CN(C)C1CCN(C(=O)NCc2ccc(Cn3cncn3)cc2)CC1`, for which the cytotoxicity at 70.5 h was found to be 14.8%.

For the compound `CCOC(CC)C(=O)NCc1ccnc(Oc2ccc(F)cc2)c1` (stereo not given), the cytotoxicity at 70.5 h was -7.99%.

Take `Cc1ccc(NC(=O)NC(C)C(=O)N2CCS(=O)(=O)CC2)cc1` (stereo not given): the cytotoxicity at 70.5 h is -7.48%.

For `O=C(NCCNCC1CNc2ccnn2C1)c1ccc(F)cc1` (stereo not given), the cytotoxicity at 70.5 h was -6.67%.

With `CCCNC(c1ccc(F)cc1)c1cccnc1` (stereo not given), the cytotoxicity at 70.5 h is -19.4%.
